Data reported in patent US20230406804A1, “PROTEIN KINASE INHIBITORS” (Xavier University of Louisiana, priority 2018, published 2023).
pIC50: −log10 of the molar value. “Also recorded” adds a separate entry of the source.

Columns and labels:
HER2 residue Y1248 = assay: Western blot of HER2 autophosphorylation; assay type: cell-based; settings: 10 μM, 2 h; MCF7/pcDNA, MCF7/HER2, MCF7/HER2Δ16
Excerpt: (§1) HER2 is a member of the erbB family of tyrosine kinases, which is comprised of four partial homologous transmembrane receptors: EGFR/HER1 (erbB1), HER2 (erbB2/neu), HER3 (erbB3), and HER4 (erbB4). […] Ligand binding induces homo- or hetero-dimerization through disulfide bond linkage, and leads to receptor activation and tyrosine auto-phosphorylation. HER2 is a preferred dimerization partner due to its high catalytic activity and forms potent heterodimers with EGFR and HER3. HER2, with its intrinsic kinase activity can transphosphorylate other members of the erbB family. HER2 and HERΔ16 are overexpressed in the breast cancer cell lines that have been used in this study, leading to the kinases being constitutively active. Upon dimerization, the constitutively active HER2 and HER2Δ16 receptors can transphosphorylate coexpressed EGFR. The levels of phosphorylated HER2 in the parental MCF-7 cell line were less, resulting in its lack of dimerization with EGFR and its transphosphorylation. Western blots were performed to determine the ability of the compounds to inhibit the activation of the HER2 receptor (FIG. 7). The total and phosphorylated protein were detected upon treatment of each of the cells lines with the compounds 6, 7, 8a+8b, 9, 15, 25, 26, 27 and 28 (2-methyl-4,6-dinitro-1H-indene-1,3(2H)-dione) along with the positive control lapatinib at 10 μM concentration for 2 h. […] Compounds 26 and 28 from FIG. 5 were used as negative controls.

EGFR residue Y1068 = target: T1, EGFR residue Y1068 (Homo sapiens, UniProt P00533); assay: Western blot of EGFR transphosphorylation; assay type: cell-based; settings: 10 μM, 2 h; MCF7/pcDNA, MCF7/HER2, MCF7/HER2Δ16
T1 construct: endogenous in cells; host or cells: MCF-7/pcDNA, MCF-7/HER2, MCF-7/HER2Δ16
Excerpt: as §1

MCF-7/HER2 = assay: CellTiter-Glo cell viability, IC50; assay type: cell-based; settings: Homo sapiens, MCF7, 48 h treatment
Procedure: (§2) The antagonistic activities of the compounds were tested in an estrogen receptor positive (ER+) breast cancer cell line, MCF7 breast cancer cell lines expressing HER2, HER2Δ16 and empty vector. Lapatinib was used as the positive control. The cells were treated with the compounds at 10 μM concentration for 48 h. After treatment, cell viability was tested using the CellTiter-Glo Assay (Promega). […] The […] best compounds 7, 9, the mixture of 8a+8b, 25 and 27 were then taken up for further studies.

MCF-7/HER2Δ16 = assay: CellTiter-Glo cell viability, IC50; assay type: cell-based; settings: Homo sapiens, MCF7, 48 h treatment, read-out: IC50 MCF-7/HER2D16
Procedure: as §2

MCF-7/pcDNA = assay: CellTiter-Glo cell viability, IC50; assay type: cell-based; settings: Homo sapiens, MCF7, 48 h treatment
Procedure: as §2

[1] = tested on: BT20, MDA-MB-468, MDA-MB-231, SKBR3, BT474, SUM 190PT and SUM 225CWN; assay: Growth inhibition of a panel of breast cancer cell lines; assay type: cell-based; settings: triple negative, trastuzumab sensitive and trastuzumab resistant cell lines; read-out: IC50 growth inhibition, range over breast cancer cell line panel
Excerpt: (§3) Compound 7 was taken up for further analysis of its ability to inhibit the growth of a panel of breast cancer cell lines of varied types. The panel included the triple negative cell lines BT20, MDA-MB-468 and MDA-MB-231, the trastuzumab sensitive cell lines SKBR3 and BT474, and the trastuzumab resistant cell lines SUM 190PT and SUM 225CWN (FIG. 9).

MDA-MB-231 = assay: as above; assay type: cell-based
Excerpt: as §3

[2] = tested on: Aurora kinases A/B (AurK A/B); assay: Cross kinase panel high-throughput assay; assay type: biochemical; settings: 10 μM
Procedure: (§4) Compound 7 was then subjected to a cross kinase panel high-throughput assay at 10 μM concentration, at Life Technologies, to determine the selectivity of kinase inhibition (FIG. 10). A panel of 120 disease relevant kinases (available with Life Technologies) were studied. 11 kinases were inhibited at 80% or more-protein kinase B 1/2 (also known as AKT1/2), Aurora kinases A/B (AurK A/B), checkpoint kinase 2 (CHEK2), feline sarcoma kinase (FES), fibroblast growth factor 1 (FGFR1), I kappa B kinase B/E (IKK B/E), mitogen activated protein kinase kinase 1 (MAP2K1), mitogen activated protein kinase kinase kinase 8 (MAP3K8), Never in Mitosis (NIMA) related kinase 2 (NEK2), polo-like kinase 1/3 (PLK1/3), serum/glucocorticoid regulated kinase 1 (SGK1) and TEK tyrosine kinase. All these kinases except for CHEK2 are reported to have tumorigenic roles in breast cancer.

[3] = tested on: I kappa B kinase B/E (IKK B/E); assay: Cross kinase panel high-throughput assay; assay type: biochemical; settings: 10 μM
Procedure: as §4

[4] = target: T2, Never in Mitosis (NIMA) related kinase 2 (NEK2) (Homo sapiens, UniProt P51955); assay: Cross kinase panel high-throughput assay; assay type: biochemical
T2 sequence (P51955 1-445): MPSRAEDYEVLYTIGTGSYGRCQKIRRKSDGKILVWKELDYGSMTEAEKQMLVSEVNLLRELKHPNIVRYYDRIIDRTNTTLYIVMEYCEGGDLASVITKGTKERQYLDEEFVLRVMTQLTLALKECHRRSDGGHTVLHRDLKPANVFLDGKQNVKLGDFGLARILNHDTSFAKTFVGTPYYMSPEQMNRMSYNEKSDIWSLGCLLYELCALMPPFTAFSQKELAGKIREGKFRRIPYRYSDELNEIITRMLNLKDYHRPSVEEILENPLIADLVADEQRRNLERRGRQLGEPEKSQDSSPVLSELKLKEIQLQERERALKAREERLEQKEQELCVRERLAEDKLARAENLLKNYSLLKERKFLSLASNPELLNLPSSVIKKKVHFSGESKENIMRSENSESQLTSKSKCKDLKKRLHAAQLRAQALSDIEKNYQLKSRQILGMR
Procedure: as §4

TEK tyrosine kinase = TEK tyrosine kinase (Homo sapiens, UniProt Q02763); assay: Cross kinase panel high-throughput assay; assay type: biochemical
Procedure: as §4

[5] = target: checkpoint kinase 2 (CHEK2) (Homo sapiens, UniProt O96017); assay: Cross kinase panel high-throughput assay; assay type: biochemical
Procedure: as §4

[6] = target: feline sarcoma kinase (FES) (Homo sapiens, UniProt P07332); assay: Cross kinase panel high-throughput assay; assay type: biochemical
Procedure: as §4

[7] = target: fibroblast growth factor 1 (FGFR1) (Homo sapiens, UniProt P11362); assay: Cross kinase panel high-throughput assay; assay type: biochemical
Procedure: as §4

[8] = target: mitogen activated protein kinase kinase 1 (MAP2K1) (Homo sapiens, UniProt Q02750); assay: Cross kinase panel high-throughput assay; assay type: biochemical
Procedure: as §4

[9] = target: mitogen activated protein kinase kinase kinase 8 (MAP3K8) (Homo sapiens, UniProt P41279); assay: Cross kinase panel high-throughput assay; assay type: biochemical
Procedure: as §4

[10] = tested on: polo-like kinase 1/3 (PLK1/3); assay: Cross kinase panel high-throughput assay; assay type: biochemical; settings: 10 μM
Procedure: as §4

[11] = tested on: protein kinase B 1/2 (AKT1/2); assay: Cross kinase panel high-throughput assay; assay type: biochemical; settings: 10 μM
Procedure: as §4

[12] = target: T3, serum/glucocorticoid regulated kinase 1 (SGK1) (Homo sapiens, UniProt O00141); assay: Cross kinase panel high-throughput assay; assay type: biochemical
T3 sequence (O00141 1-431): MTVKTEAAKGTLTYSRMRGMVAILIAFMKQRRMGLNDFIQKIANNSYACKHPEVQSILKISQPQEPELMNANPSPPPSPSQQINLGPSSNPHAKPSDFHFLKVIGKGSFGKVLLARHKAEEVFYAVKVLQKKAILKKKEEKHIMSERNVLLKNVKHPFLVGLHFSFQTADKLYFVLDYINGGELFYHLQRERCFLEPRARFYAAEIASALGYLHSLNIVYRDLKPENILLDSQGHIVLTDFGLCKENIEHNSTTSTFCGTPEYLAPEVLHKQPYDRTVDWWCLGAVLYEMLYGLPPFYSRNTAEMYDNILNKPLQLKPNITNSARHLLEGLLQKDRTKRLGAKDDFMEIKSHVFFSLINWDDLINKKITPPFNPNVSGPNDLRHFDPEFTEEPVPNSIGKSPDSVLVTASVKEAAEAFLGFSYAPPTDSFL
Procedure: as §4

[13] = tested on: MCF7 breast cancer cell lines expressing HER2, HER2Δ16 and empty vector; assay: High-throughput cell viability screen at 10 μM (CellTiter-Glo); assay type: cell-based; settings: for suppression of cell viability / inhibition in the high-throughput assay: 48 h
Procedure: The antagonistic activities of the compounds were tested in an estrogen receptor positive (ER+) breast cancer cell line, MCF7 breast cancer cell lines expressing HER2, HER2Δ16 and empty vector. Lapatinib was used as the positive control. The cells were treated with the compounds at 10 μM concentration for 48 h. After treatment, cell viability was tested using the CellTiter-Glo Assay (Promega).

T1 sequence (P00533 25-1210): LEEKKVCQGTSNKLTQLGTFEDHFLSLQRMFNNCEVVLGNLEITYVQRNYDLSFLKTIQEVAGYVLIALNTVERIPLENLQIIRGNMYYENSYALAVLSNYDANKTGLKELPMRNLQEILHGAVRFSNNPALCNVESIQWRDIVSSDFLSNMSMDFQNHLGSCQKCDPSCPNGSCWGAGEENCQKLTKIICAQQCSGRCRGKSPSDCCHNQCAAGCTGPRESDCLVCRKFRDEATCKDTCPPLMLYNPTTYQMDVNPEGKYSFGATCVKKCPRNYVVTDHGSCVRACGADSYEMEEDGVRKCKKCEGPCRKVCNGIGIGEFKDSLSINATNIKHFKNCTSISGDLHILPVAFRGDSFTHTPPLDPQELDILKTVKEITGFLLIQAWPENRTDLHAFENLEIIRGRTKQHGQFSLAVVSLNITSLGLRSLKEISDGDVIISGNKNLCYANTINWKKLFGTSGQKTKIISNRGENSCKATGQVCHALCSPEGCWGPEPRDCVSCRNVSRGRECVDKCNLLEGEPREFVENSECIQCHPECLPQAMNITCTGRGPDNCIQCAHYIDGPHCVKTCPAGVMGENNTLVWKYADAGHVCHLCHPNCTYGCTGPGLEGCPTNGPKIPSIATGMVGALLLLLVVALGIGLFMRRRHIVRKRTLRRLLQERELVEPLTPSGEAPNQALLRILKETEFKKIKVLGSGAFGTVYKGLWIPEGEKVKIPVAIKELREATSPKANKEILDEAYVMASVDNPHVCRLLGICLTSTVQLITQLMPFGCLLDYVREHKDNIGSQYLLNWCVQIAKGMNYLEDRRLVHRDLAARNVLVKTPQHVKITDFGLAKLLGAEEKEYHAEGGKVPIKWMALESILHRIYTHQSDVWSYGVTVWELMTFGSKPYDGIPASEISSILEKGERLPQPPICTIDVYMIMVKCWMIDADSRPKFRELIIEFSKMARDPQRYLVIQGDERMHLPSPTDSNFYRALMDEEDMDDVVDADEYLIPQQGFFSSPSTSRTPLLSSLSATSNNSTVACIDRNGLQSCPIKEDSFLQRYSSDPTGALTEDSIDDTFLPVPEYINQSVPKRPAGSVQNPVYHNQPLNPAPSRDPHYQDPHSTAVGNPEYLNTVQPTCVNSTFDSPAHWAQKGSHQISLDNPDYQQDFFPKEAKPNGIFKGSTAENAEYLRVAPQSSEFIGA
Chain of TEK tyrosine kinase (Q02763 23-1124): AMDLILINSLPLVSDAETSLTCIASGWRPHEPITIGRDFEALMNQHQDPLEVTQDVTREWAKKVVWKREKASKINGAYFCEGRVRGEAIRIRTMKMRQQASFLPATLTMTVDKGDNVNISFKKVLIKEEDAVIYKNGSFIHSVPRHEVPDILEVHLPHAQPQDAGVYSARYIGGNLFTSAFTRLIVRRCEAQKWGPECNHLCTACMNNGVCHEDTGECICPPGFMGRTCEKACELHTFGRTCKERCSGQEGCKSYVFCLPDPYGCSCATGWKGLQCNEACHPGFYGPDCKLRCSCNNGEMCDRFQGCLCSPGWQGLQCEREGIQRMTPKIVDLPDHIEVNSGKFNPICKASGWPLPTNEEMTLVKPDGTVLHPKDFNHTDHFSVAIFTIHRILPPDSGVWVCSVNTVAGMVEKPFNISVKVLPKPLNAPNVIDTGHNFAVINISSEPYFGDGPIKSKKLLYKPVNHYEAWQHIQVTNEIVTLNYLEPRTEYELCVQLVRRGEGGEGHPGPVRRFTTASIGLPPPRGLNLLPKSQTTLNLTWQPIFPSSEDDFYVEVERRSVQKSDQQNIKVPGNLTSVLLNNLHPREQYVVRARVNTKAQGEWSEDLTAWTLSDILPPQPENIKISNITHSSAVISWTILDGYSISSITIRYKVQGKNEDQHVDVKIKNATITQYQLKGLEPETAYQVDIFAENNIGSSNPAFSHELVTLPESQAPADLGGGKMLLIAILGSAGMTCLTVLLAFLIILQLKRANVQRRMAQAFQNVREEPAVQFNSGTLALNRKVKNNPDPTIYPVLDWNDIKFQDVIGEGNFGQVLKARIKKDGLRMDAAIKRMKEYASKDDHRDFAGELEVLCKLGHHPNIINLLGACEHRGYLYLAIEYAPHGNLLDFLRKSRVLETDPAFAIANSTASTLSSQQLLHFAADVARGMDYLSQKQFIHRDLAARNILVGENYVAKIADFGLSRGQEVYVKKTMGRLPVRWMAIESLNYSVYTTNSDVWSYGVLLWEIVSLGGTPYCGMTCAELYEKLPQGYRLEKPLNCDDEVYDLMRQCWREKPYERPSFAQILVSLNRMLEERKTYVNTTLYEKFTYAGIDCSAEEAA
Chain of mitogen activated protein kinase kinase 1 (MAP2K1) (Q02750 whole entry): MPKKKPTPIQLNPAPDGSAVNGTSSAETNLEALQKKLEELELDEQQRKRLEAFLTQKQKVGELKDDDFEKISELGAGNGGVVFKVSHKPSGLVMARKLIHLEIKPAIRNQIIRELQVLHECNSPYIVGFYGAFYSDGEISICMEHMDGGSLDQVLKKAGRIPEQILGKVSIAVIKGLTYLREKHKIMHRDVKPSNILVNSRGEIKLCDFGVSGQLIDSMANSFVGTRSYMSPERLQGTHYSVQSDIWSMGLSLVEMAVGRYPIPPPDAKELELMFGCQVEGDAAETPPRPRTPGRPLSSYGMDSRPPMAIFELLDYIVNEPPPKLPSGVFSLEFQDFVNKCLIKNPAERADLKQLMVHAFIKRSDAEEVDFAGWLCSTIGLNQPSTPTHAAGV
Chain of fibroblast growth factor 1 (FGFR1) (P11362 22-822): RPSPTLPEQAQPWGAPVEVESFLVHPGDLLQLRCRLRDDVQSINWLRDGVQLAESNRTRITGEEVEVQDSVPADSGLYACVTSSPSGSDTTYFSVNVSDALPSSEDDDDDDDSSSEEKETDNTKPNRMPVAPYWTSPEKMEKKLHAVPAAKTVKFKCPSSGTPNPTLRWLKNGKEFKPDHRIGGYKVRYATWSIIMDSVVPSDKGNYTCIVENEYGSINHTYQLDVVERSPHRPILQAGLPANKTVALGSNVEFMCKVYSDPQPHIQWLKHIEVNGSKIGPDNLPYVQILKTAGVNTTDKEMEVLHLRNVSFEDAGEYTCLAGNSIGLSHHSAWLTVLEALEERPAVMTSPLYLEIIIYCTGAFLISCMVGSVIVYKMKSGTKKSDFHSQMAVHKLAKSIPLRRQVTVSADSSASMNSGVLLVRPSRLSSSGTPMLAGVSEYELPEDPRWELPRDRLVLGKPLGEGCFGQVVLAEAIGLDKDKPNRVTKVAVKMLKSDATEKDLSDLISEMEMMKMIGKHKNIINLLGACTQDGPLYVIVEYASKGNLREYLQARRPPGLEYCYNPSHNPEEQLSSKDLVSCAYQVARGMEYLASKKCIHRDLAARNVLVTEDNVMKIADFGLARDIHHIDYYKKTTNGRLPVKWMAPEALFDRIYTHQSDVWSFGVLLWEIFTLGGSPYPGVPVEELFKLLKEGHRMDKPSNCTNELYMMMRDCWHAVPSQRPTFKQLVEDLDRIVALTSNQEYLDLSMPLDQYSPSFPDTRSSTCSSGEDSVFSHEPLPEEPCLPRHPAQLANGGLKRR
Chain of checkpoint kinase 2 (CHEK2) (O96017 whole entry): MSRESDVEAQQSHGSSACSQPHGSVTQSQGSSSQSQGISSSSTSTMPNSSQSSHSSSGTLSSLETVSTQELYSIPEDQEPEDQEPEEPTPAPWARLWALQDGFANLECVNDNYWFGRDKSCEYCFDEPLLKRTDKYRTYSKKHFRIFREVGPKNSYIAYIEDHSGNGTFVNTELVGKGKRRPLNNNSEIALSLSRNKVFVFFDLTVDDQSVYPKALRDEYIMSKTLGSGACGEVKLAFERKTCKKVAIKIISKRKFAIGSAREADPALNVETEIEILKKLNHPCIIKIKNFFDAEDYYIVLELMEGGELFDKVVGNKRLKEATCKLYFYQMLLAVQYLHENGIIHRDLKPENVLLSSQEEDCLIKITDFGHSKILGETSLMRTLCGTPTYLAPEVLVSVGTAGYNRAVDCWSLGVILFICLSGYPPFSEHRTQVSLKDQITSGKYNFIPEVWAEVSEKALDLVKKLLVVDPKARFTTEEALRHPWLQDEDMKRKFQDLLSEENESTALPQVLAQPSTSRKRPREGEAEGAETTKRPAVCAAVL
Chain of mitogen activated protein kinase kinase kinase 8 (MAP3K8) (P41279 whole entry): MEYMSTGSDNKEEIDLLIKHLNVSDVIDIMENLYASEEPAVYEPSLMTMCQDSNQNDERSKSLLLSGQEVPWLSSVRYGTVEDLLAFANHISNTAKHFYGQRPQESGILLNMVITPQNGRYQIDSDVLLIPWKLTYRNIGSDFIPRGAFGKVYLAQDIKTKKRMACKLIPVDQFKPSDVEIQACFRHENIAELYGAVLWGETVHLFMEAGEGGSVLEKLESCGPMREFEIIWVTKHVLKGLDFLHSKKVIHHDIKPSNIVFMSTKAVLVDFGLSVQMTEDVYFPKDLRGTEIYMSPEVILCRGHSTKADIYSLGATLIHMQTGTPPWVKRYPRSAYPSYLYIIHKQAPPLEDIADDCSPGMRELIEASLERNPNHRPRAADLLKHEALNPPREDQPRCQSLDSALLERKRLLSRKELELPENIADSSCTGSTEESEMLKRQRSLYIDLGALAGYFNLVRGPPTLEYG

Row | Compound | inhibition of autophosphorylation at HER2-Y1248 (western blot) (HER2 residue Y1248) | inhibition of phosphorylation at EGFR-Y1068 (western blot) (EGFR residue Y1068) | pIC50 (MCF-7/HER2) | pIC50 (MCF-7/HER2Δ16) | pIC50 (MCF-7/pcDNA) | suppression of cell viability / inhibition in the high-throughput assay [13] | other results
1 | CC1=CC(=O)c2c(O)ccc(O)c2C1=O [Compound 6, 5,8-dihydroxy-2-methylnaphthalene-1,4-dione] | significantly decreased HER2 activating phosphorylation to the same extent as lapatinib; also recorded: inhibit the phosphorylation | decreased; also recorded: inhibit the phosphorylation | – | – | – | – | –
2 | Cc1cc(O)c2c(c1O)C(=O)C=CC2=O [Compound 7, 5,8-dihydroxy-6-methylnaphthalene-1,4-dione] | significantly decreased HER2 activating phosphorylation to the same extent as lapatinib; also recorded: inhibit the phosphorylation | decreased; also recorded: inhibit the phosphorylation | 6.54 | 6.29 | 6.49 | – | pIC50 [1]: 5.53 to 6.91; fold decrease in potency versus the other cell lines (MDA-MB-231): 3-4 fold; kinase inhibition AurK A/B [2]: ≥ 80%; kinase inhibition IKK B/E [3]: ≥ 80%; inhibition at 10 µM [4]: ≥ 80%; inhibition at 10 µM (TEK tyrosine kinase): ≥ 80%; inhibition at 10 µM [5]: ≥ 80%; inhibition at 10 µM [6]: ≥ 80%; inhibition at 10 µM [7]: ≥ 80%; inhibition at 10 µM [8]: ≥ 80%; inhibition at 10 µM [9]: ≥ 80%; kinase inhibition PLK1/3 [10]: ≥ 80%; kinase inhibition AKT1/2 [11]: ≥ 80%; inhibition at 10 µM [12]: ≥ 80%
3 | O=C1C=C(CBr)C(=O)c2c(O)ccc(O)c21 [Compound 9, 2-(bromomethyl)-5,8-dihydroxynaphthalene-1,4-dione] | significantly decreased HER2 activating phosphorylation to the same extent as lapatinib; also recorded: inhibit the phosphorylation | decreased; also recorded: inhibit the phosphorylation | 5.75 | 5.44 | 5.78 | – | –
4 | Cc1ccc(O)c2c1C(=O)C=CC2=O [Compound 22, 5-hydroxy-8-methylnaphthalene-1,4-dione] | – | – | 5.34 | 5.03 | 5.53 | – | –
5 | Cc1cc(O)c2c(c1)C(=O)C=CC2=O [Compound 25, 5-hydroxy-7-methylnaphthalene-1,4-dione] | did not show such an effect on auto-phosphorylation; also recorded: did not show notable inhibition of phosphorylation | – | – | – | 4.51 | showed notable inhibition | –
6 | O=C1C=CC(=O)c2c(O)cc(CBr)cc21 [Compound 26, 5-hydroxy-7-bromomethylnaphthalene-1,4-dione] | did not show such an effect on auto-phosphorylation; also recorded: did not show notable inhibition of phosphorylation | – | – | – | – | showed notable inhibition | –
7 | COc1cc(C)cc2c1C(=O)C=CC2=O [Compound 27, 5-methoxy-7-methylnaphthalene-1,4-dione] | did not show such an effect on auto-phosphorylation; also recorded: did not show notable inhibition of phosphorylation | – | 5.50 | 5.14 | 5.31 | showed notable inhibition | –
8 | CC1C(=O)c2cc([N+](=O)[O-])cc([N+](=O)[O-])c2C1=O (stereo not shown) [Compound 28, 2-methyl-4,6-dinitro-1H-indene-1,3(2H)-dione] | shows significant phosphorylation | shows significant phosphorylation | – | – | – | did not show notable growth inhibition | –
9 | CS(=O)(=O)CCNCc1ccc(-c2ccc3ncnc(Nc4ccc(OCc5cccc(F)c5)c(Cl)c4)c3c2)o1 [Lapatinib, reference compound] | – | – | 4.80 | 4.72 | 4.80 | – | viability at 10 µM ([13]; Homo sapiens, MCF7, 48 h): < 70%
